Here are results for 33 compounds from patent publication US20260256751A1, “COMBINATION OF BETA-2-ADRENERGIC RECEPTOR AGONISTS AND GLP-1 RECEPTOR AGONISTS FOR USE IN TREATING HYPERGLYCAEMIA” (ATROGI AB, priority 2023, published 2026).

SMILES strings stand for the structures. A value given as a limit tells only on which side of the number the result lay.

Experiment [1] concerns differentiated L6-myotubes. The experiment can be described thus: Glucose uptake screen (Biological example 1 of WO 2019/053427). The settings on record: compound at 10 μM, activity relative to isoproterenol at 10 μM; for Emax at 10 µM: read-out: Biological example 1 of WO 2019/053427 (GU). It counts as cell-based. An outline of the steps: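 Uptake was read out as ^3H-2-deoxyglucose (50 nM, 10 min) radioactivity in NaOH lysates. Beforehand, overnight-starved, differentiated L6 myotubes received compound at 1×10^−5 M with ICI-118551 present for 1 h 40 min, followed by fresh agonist for a further 20 min in glucose-free medium.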

For experiment [2], the system named is differentiated L6-myotubes. The experiment can be described thus: cAMP production relative to isoprenaline (Biological example 2 of WO 2019/053427). The settings on record: compound at 10 μM, activity relative to isoproterenol at 10 μM; for Emax at 10 µM: 0.25 h. It counts as cell-based. The procedure, abridged:
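Values are cAMP levels relative to isoprenaline at equal concentration (final 1×10^−5 M for both). Stimulation lasted 15 min in differentiated L6 myotubes, using HBSS buffer (pH 7.4) containing 1 mM IBMX, 5 mM HEPES and 1% BSA.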

Turning to `CC12CC(C1)[C@H]([C@H](O)c1cccc(F)c1)N2` [Compound 186, (R)-{(R)-1-methyl-2-azabicyclo[2.1.1]hex-3-yl}(m-fluorophenyl)methanol], the Emax at 10 µM in experiment [1] was above 75%; in experiment [2], 50 to 75%.
The corresponding values for `CCCCNCC(O)c1cccc(O)c1` (stereo not drawn) [Compound 15, 2-(butylamino)-1-(m-hydroxyphenyl)-1-ethanol] are 50 to 75% and below 25%.
The corresponding values for `CCC[C@@H]1CC[C@H]([C@@H](O)c2cccc(O)c2)N1` [Compound 127, m-{(S)-[(2R,5R)-5-propyl-2-pyrrolidinyl]hydroxymeth-yl}phenol] are 25 to 50% and below 25%.
Regarding `CC(C)(C[C@H]1CC[C@@H](NS(C)(=O)=O)CC1)NC[C@H](O)c1cncc(F)c1` [Compound 468, (R)-2-{1,1-dimethyl-2-[(1s,4S)-4-(mesylamino)cyclohexyl]ethylamino}-1-(5-fluoro-3-pyridyl)-1-ethanol], the results for the Emax at 10 µM in experiment [1] and in experiment [2] were above 75% and below 25%, respectively.
With `CC12CCC([C@H](O)c3ccccc3Cl)(CC1)N2` [Compound 195, (R)-(o-chlorophenyl)(4-methyl-7-azabicyclo[2.2.1]hept-1-yl)methanol], the Emax at 10 µM is above 75% in experiment [1] and below 25% in experiment [2].
The corresponding values for `CC(C)(NC[C@H](O)c1cncc(F)c1)[C@H]1CC[C@H](OCC(=O)O)CC1` [Compound 419, [(1R,4r)-4-{1-[(R)-2-(5-fluoro-3-pyridyl)-2-hydroxyethylamino]-1-methylethyl}cyclohexyloxy]aetic acid] are 50 to 75% and below 25%.
The corresponding values for `CS(=O)(=O)N(Cc1ccccc1)[C@H]1CC[C@@H](C[C@@H]2CC[C@H]([C@H](O)c3cccc(F)c3)N2)CC1` [Compound 508, (R)-[(2R,5S)-5-({(1s,4R)-4-[(benzyl)-N-mesylamino]cyclohexyl}methyl)-2-pyrrolidinyl](m-fluorophenyl)methanol] are below 25% and below 25%.
On to `CC(C)(C[C@H]1CC[C@@H](S(N)(=O)=O)CC1)NC[C@H](O)c1cccc(F)c1` [Compound 517, (1S,4s)-4-{2-[(R)-2-(m-fluorophenyl)-2-hydroxyethylamino]-2-methylpropyl}cyclohexanesulfonamide], for which the Emax at 10 µM was 25 to 50% in experiment [1] and below 25% in experiment [2].
The corresponding values for `CS(=O)(=O)N[C@H]1CC[C@H](C[C@@H]2CC[C@H]([C@H](O)c3cccc(F)c3)N2)CC1` [Compound 504, (R)-[(2R,5S)-5-{[(1r,4S)-4-(mesylamino)cyclohexyl]methyl}-2-pyrrolidinyl](m-fluorophenyl)methanol] are 50 to 75% and below 25%.
On to `CC(C)(C[C@H]1CC[C@@H](NS(C)(=O)=O)CC1)NC[C@H](O)c1cccc(C#N)n1` [Compound 422, 6-[(S)-2-{1,1-dimethyl-2-[(1s,4R)-4-(mesylamino)cylcohexyl]ethylamino}-1-hydroxyethyl]-2-pyridinecarbonitrile], for which the Emax at 10 µM in experiment [1] was 50 to 75%; in experiment [2] it was below 25%.
For `CC(C)(C)NC[C@H](O)c1ccc(O)cn1` [Compound 95, 6-[(S)-2-(tert-butylamino)-1-hydroxyethyl]-3-pyridinol], the figures for the Emax at 10 µM in experiment [1] and in experiment [2] were 50 to 75% and below 25%, respectively.
Regarding `COC(=O)[C@H]1CC[C@@H](CCC(C)(C)NC[C@H](O)c2cccc(F)c2)CC1` [Compound 351, methyl (1S,4s)-4-{3-[(R)-2-(m-fluorophenyl)-2-hydroxyethylamino]-3-methylbutyl}cyclohexanecarboxylate], the Emax at 10 µM is above 75% in experiment [1] and 25 to 50% in experiment [2].
In the case of `O[C@H](c1cccc(F)c1)C12CCC(COCc3ccc(OC(F)(F)F)cc3)(CC1)N2` [Compound 488, (R)-(m-fluorophenyl)(4-{[(p-trifluoromethoxyphenyl)methoxy]methyl}-7-azabicyclo[2.2.1]hept-1-yl)methanol], the Emax at 10 µM in experiment [1] and in experiment [2] was below 25% in each case.
As to `O[C@H](c1cncc(F)c1)C12CCC(CCCc3ccccc3)(CC1)N2` [Compound 532, (R)-(5-fluoro-3-pyridyl){4-(3-phenylpropyl)-7-azabicyclo[2.2.1]hept-1-yl}methanol], the Emax at 10 µM fell in the range of 50 to 75% in experiment [1] and 25 to 50% in experiment [2].
The corresponding values for `CS(=O)(=O)N[C@H]1CC[C@H](CNC[C@H](O)c2cncc(F)c2)CC1` [Compound 313, (R)-1-(5-fluoro-3-pyridyl)-2-({[(1r,4R)-4-(mesylamino)cyclohexyl]methyl}amino)-1-ethanol] are 25 to 50% and below 25%.
For the compound `C[C@H]1CC[C@@H]([C@H](O)c2ccccc2)N1` (racemic) [Compound 38, Racemic mixture of (R)-[(2S,5S)-5-methyl-2-pyrrolidinyl]phenylmeth-anol and (S)-[(2R,5R)-5-methyl-2-pyrrolidinyl]phenylmeth-anol], the Emax at 10 µM in experiment [1] was 25 to 50%; in experiment [2] it was below 25%.
The corresponding values for `Cc1c(F)cccc1[C@@H](O)CNC(C)(C)C` [Compound 150, (R)-2-(tert-butylamino)-1-(3-fluoro-2-tolyl)-1-ethanol] are above 75% and 25 to 50%.
Take `CCC[C@H](C)NC[C@H](O)c1cccc(F)c1` [Compound 51, (R)-2-[(S)-1-methylbutylamino]-1-(m-fluorophenyl)-1-ethanol]: the Emax at 10 µM was above 75% in experiment [1] and below 25% in experiment [2].
The corresponding values for `CCC[C@@H]1CCCC[C@H]([C@@H](O)c2cncc(F)c2)N1` [Compound 218, (S)-[(2R,7R)-7-propyl-2-azepanyl](5-fluoro-3-pyridyl)methanol] are below 25% and below 25%.
`CCC[C@H]1CCC[C@H]([C@@H](O)c2ccc(F)cc2)N1` [Compound 105, (S)-[(2R,6S)-6-propyl-2-piperidyl](p-fluorophenyl)methanol]: the results for the Emax at 10 µM in experiment [1] and in experiment [2] were 25 to 50% and below 25%, respectively.
Taken in the same sequence, the figures for `O[C@@H](c1cccc(F)c1)C12CCC(Cc3ccc(OC(F)(F)F)cc3)(CC1)N2` [Compound 500] were below 25% and below 25%.
Consider `CC1(C)CC[C@H]([C@@H](O)c2ccccc2Cl)N1` [Compound 152], for which the “Biological example 1 of WO 2019/053427 (GU)” value in experiment [1] is “+++ (more than 75% of that of isoproterenol at 10 μM)”. Besides, in experiment [2], the “Biological example of WO 2019/053427 (cAMP)” value is “− (less than 25%)”.
In the case of `CC1(C)CCC[C@@H]([C@H](O)c2cccc(F)c2)N1` [Compound 190, (R)-[(S)-6,6-dimethyl-2-piperidyl](m-fluorophenyl)methanol], the Emax at 10 µM was above 75% in experiment [1] and below 25% in experiment [2].
The corresponding values for `O[C@H](c1cccc(F)c1)C12CCC(C/C=C/c3ccccc3)(CC1)N2` [Compound 534, (R)-{4-[(E)-3-phenyl-2-propenyl]-7-azabicyclo[2.2.1]hept-1-yl}(m-fluorophenyl)methanol] are above 75% and below 25%.
In the case of `O[C@@H](CNC[C@H]1CC[C@H](O)CC1)c1cncc(F)c1` [Compound 274, (R)-1-(5-fluoro-3-pyridyl)-2-({[(1r,4R)-4-hydroxycyclohexyl]meth-yl}amino)-1-ethanol], the Emax at 10 µM in experiment [1] and in experiment [2] was below 25% each time.
`CCC[C@@H]1CC[C@H]([C@H](O)c2cccc(O)c2)N1` [Compound 57, m-{(R)-[(2R,5R)-5-propyl-2-pyrrolidinyl]hydroxymeth-yl}phenol]: the Emax at 10 µM in experiment [1] was above 75%; in experiment [2] it was 50 to 75%.
Regarding `COc1ccc(CCC23CCC([C@@H](O)c4cccc(F)c4)(CC2)N3)cc1` [Compound 539, (S)-(m-fluorophenyl){4-[2-(p-methoxyphenyl)ethyl]-7-azabicyclo[2.2.1]hept-1-yl}methanol], the Emax at 10 µM in experiment [1] and in experiment [2] was below 25% throughout.
For the compound `CC1(C)CC[C@H]([C@H](O)c2ccccc2F)N1` [Compound 175, (R)-[(R)-5,5-dimethyl-2-pyrrolidinyl](o-fluorophenyl)methanol], the Emax at 10 µM in experiment [1] is above 75%; in experiment [2], 25 to 50%.
Taken in the same sequence, the figures for `COc1ccc(C[C@@H]2CC[C@H]([C@H](O)c3cncc(F)c3)N2)cc1` [Compound 378, (R)-{(2R,5S)-5-[(p-methoxyphenyl)methyl]-2-pyrrolidinyl}(5-fluoro-3-pyridyl)methanol] were above 75% and below 25%.
The corresponding values for `O[C@H](c1cccc(F)c1)[C@H]1CCC2(CCCC2)N1` [Compound 168] are 50 to 75% and 25 to 50%.
The corresponding values for `CCC[C@H]1CC[C@H]([C@H](O)c2cccc(F)c2)N1` [Compound 124, (R)-[(2R,5S)-5-propyl-2-pyrrolidinyl](m-fluorophenyl)methanol] are 50 to 75% and below 25%.
For the compound `CC(C)(C[C@H]1CC[C@H](NC(=O)OC(C)(C)C)CC1)NC[C@H](O)c1cccc(F)c1` [Compound 420], the Emax at 10 µM in experiment [1] was in the range of 50 to 75%; in experiment [2] it was 25 to 50%.
Taken in the same sequence, the figures for `O[C@@H](c1cccc(F)c1)C12CCC(Cc3ccccc3)(CC1)N2` [Compound 389, (S)-(4-benzyl-7-azabicyclo[2.2.1]hept-1-yl)(m-fluorophenyl)methanol] were 50 to 75% and below 25%.
